In brackets after ≈: the same amount, converted by molar mass.
Key:
[1] = test system: KM mice; assay type: in vivo; settings: high-dose group, dead mice, HE staining
Method: After the acute toxicity test, the dead mice after oral administration and the surviving mice at the end of the observation period were promptly dissected and pathologically examined. […] We dissected the important organs (heart, liver, spleen, lung, kidney, large intestine, and small intestine) of dead mice and normal mice in the high-dose group of each drug solution. Then, the main organs were fixed in 10% buffered formalin and embedded in paraffin for 1–4 h. They were histopathologically examined under the optical microscope after slicing and staining with hematoxylin-eosin (HE) staining. No fixed parameters were compared between the treatment and control groups.

[2] = test system: Staphylococcus aureus; assay: In vitro antibacterial activity (MIC/MBC, doubling dilution); assay type: cell-based; settings: S. aureus, 37 °C, 24 h
Method: (§1) The clinically typical pathogens (Staphylococcus aureus, Escherichia coli, Pseudomonas aeruginosa, Salmonellosis typhoidal and Proteus vulgaris) were obtained from the Department of Microbiology and Immunology of Guangxi Medical University. We cultured the bacterial suspension of five pathogens in bouillon culture-medium at 37 °C, and diluted it into 0.5 McFarland Standard with bioclean normal saline (the volume ratio of each bacterial suspension and bioclean normal saline was 1:1000, and the concentration of bacterial suspension was 1~2 × 10^8 CFU/mL). […] We carried out the assays for MIC and MBC evaluation by doubling the dilution under sterile operation on the clean bench. To be specific, we set the sterile test tubes numbered 1–10 for comparison according to the half-dilution method. We added the broth medium to each test tube to fix the final volume to be 2 mL. […] Then, we filled each tube with 50 μL of inoculated bacteria colony, except for tube no. 9, which was the negative control. The final colony concentration in each test tube was 2 × 10^5 CFU/mL. Tube no. 10 was set as a blank without the tested drug. […] We repeated all tests in triplicate.

[3] = test system: Proteus vulgaris; assay: as above; assay type: cell-based; settings: P. vulgaris, 37 °C, 24 h
Method: as §1

[4] = test system: Pseudomonas aeruginosa; assay: as above; assay type: cell-based; settings: P. aeruginosa, 37 °C, 24 h
Method: as §1

[5] = Water solubility by UV-Vis (Lambert–Beer law); assay type: physicochemical; settings: thermodynamic from solid, saturated aqueous solution, 30× dilution, room temperature / 35 °C (method)
Text: We diluted this solution into a series of working solutions to measure their UV-Vis spectra.

[6] = rat, in vivo, po

SMILES | histopathological finding in kidney tissue [1] | histopathological finding in lung tissue [1] | MBC [2] | MIC [2] | MBC [3] | MIC [3] | MBC [4] | MIC [4] | solubility [5] | Cl ([6]; male, SD) | Vd ([6]; male, SD) | Tmax [6]
CCN1CCN(c2cc3c(cc2F)c(=O)c(C(=O)[O-])cn3C2CC2)CC1.CCN1CCN(c2cc3c(cc2F)c(=O)c(C(=O)[O-])cn3C2CC2)CC1.O.O.O.O.[Ca+2] [EFX-Ca, [Ca(EFX)2(H2O)4]·H2O] | enlargement of the renal capsule | significant inflammatory cell infiltration of the lung tissue |  |  |  |  |  |  |  |  |  | 
CCN1CCN(c2cc3c(cc2F)c(=O)c(C(=O)O)cn3C2CC2)CC1 [EFX, enrofloxacin, reference compound] |  |  | 0.25 µg/mL (≈ 0.696 µM) | 0.25 µg/mL (≈ 0.696 µM) | 0.125 µg/mL (≈ 0.348 µM) | 0.125 µg/mL (≈ 0.348 µM) | 0.125 µg/mL (≈ 0.348 µM) | 0.125 µg/mL (≈ 0.348 µM) | 204 µg/mL (≈ 568 µM) | 0.6167 mL/min/kg | 1.05316 L/kg | 1 H

— publication PMC8878047 (Pharmaceutics, 2022)
